Measured values from PMC10507085, “Pharmacological inhibition of TBK1/IKKε blunts immunopathology in a murine model of SARS-CoV-2 infection” (Nature Communications, 2023).

Columns and labels:
Assay in all cases: biochemical
Design in all cases: KINOMEscan competition binding, DNA-tagged kinase against immobilised ligand, qPCR read-out
Conditions in all cases: read-out: Percent Control
TBK1 = TBK1 (Homo sapiens, UniProt Q9UHD2)
DAPK3 = DAPK3 (Homo sapiens, UniProt O43293)
LRRK2 = LRRK2 (Homo sapiens, UniProt Q5S007)
NEK7 = NEK7 (Homo sapiens, UniProt Q8TDX7)
PRKCD = PRKCD (Homo sapiens, UniProt Q05655)
IRAK3 = IRAK3 (Homo sapiens, UniProt Q9Y616)
PRKD3 = PRKD3 (Homo sapiens, UniProt O94806)
[1] = molecular target: T1, JAK1(JH1domain-catalytic) (Homo sapiens, UniProt P23458)
T1 construct: JH1 domain catalytic

MUSK = MUSK (Homo sapiens, UniProt O15146)
[2] = molecular target: T2, RPS6KA5(Kin.Dom.2-C-terminal) (Homo sapiens, UniProt O75582)
T2 construct: Kin.Dom.2 C-terminal

TIE1 = TIE1 (Homo sapiens, UniProt P35590)
ACVR2A = ACVR2A (Homo sapiens, UniProt P27037)
SRPK2 = SRPK2 (Homo sapiens, UniProt P78362)
CDKL1 = CDKL1 (Homo sapiens, UniProt Q00532)
PAK3 = PAK3 (Homo sapiens, UniProt O75914)
MAPK3 = MAPK3 (Homo sapiens, UniProt P27361)
EPHA8 = EPHA8 (Homo sapiens, UniProt P29322)
[3] = molecular target: T3, JAK1(JH2domain-pseudokinase) (Homo sapiens, UniProt P23458)
T3 construct: JH2 domain pseudokinase

[4] = molecular target: T4, RSK1(Kin.Dom.1-N-terminal) (Homo sapiens, UniProt Q15418)
T4 construct: gene RPS6KA1; Kin.Dom.1 N-terminal

Chain of NEK7 (Q8TDX7 whole entry): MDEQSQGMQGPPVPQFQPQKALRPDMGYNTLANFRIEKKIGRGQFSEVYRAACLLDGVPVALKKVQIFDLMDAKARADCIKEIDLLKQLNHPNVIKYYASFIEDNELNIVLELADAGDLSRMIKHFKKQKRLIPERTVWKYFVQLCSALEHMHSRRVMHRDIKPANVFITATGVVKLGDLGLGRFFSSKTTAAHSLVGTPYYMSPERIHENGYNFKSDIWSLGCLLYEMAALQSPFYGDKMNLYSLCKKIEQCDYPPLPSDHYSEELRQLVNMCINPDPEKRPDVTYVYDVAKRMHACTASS
Chain of MUSK (O15146 whole entry): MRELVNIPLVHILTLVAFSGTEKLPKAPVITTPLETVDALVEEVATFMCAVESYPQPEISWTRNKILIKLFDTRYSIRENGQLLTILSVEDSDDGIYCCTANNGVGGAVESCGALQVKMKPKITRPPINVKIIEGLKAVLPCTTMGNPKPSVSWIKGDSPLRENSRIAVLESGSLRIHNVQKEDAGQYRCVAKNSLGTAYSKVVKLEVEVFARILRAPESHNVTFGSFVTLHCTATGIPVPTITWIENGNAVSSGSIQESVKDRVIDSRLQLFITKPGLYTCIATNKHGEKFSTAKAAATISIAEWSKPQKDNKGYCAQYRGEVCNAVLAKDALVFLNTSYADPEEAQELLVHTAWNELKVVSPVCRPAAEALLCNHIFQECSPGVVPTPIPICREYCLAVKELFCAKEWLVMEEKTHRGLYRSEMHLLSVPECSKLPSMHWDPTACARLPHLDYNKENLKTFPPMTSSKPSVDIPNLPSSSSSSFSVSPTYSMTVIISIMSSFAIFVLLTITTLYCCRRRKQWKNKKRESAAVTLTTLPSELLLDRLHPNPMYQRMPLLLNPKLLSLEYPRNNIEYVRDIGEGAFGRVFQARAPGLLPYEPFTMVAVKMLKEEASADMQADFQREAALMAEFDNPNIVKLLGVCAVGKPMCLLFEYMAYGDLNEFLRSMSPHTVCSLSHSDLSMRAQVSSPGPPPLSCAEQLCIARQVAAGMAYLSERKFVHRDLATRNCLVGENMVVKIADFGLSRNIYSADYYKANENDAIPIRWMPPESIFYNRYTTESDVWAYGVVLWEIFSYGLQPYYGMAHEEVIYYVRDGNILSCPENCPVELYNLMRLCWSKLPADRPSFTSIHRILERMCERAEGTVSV
Chain of PAK3 (O75914 whole entry): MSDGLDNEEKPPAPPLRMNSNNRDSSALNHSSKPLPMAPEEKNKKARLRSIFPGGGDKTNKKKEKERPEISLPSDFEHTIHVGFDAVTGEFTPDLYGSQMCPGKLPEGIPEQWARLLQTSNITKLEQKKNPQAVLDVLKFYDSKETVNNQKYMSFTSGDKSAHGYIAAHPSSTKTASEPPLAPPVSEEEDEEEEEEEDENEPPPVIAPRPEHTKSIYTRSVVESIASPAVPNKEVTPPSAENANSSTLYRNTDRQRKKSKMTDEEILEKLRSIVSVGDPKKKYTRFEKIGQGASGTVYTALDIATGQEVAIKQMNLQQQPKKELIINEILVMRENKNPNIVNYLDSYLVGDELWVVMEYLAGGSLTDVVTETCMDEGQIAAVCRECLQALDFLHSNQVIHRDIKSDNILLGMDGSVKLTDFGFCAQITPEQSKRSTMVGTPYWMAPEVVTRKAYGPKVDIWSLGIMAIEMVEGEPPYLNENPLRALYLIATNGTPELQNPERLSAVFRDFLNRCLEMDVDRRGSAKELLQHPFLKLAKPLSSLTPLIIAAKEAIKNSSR
Chain of IRAK3 (Q9Y616 whole entry): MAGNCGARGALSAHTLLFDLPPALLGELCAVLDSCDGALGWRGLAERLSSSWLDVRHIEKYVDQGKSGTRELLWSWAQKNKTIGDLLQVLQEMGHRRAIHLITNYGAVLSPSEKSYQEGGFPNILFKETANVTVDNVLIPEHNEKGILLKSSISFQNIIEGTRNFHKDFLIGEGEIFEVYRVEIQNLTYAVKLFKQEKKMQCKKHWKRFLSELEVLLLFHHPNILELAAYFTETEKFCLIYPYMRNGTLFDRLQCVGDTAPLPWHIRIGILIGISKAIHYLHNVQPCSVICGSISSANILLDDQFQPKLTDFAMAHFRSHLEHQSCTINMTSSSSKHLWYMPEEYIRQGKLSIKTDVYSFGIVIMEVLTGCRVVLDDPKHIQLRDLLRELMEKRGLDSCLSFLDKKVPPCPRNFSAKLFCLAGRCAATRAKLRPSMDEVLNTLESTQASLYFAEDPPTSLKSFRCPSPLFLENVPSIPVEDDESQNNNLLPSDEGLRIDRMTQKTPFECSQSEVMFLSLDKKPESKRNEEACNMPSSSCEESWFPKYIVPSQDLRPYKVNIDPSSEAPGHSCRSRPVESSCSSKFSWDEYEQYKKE
Chain of PRKD3 (O94806 whole entry): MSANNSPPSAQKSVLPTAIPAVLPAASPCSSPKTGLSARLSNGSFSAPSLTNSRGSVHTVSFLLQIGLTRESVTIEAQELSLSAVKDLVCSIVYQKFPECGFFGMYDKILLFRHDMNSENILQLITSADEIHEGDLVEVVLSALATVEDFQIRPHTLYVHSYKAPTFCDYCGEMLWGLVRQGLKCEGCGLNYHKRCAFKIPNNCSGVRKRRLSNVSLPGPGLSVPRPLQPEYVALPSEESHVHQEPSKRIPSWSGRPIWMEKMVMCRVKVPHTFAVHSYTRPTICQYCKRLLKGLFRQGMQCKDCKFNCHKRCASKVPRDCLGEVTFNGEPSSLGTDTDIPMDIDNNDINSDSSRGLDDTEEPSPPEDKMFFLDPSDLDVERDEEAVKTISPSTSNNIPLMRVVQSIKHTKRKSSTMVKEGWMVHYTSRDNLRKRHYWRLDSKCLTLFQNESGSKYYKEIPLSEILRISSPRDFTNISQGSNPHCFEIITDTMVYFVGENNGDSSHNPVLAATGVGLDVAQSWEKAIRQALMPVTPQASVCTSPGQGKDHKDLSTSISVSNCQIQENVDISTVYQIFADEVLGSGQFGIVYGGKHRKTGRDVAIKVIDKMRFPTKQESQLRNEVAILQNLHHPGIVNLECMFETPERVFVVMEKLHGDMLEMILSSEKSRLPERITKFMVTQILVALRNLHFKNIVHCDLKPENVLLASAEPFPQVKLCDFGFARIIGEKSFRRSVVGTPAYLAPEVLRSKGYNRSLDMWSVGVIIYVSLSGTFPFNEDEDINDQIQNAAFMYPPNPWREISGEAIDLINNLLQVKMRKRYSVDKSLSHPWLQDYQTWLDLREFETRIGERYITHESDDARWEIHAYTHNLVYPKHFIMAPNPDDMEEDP
T1 sequence (P23458 whole entry, the tested form may be a part): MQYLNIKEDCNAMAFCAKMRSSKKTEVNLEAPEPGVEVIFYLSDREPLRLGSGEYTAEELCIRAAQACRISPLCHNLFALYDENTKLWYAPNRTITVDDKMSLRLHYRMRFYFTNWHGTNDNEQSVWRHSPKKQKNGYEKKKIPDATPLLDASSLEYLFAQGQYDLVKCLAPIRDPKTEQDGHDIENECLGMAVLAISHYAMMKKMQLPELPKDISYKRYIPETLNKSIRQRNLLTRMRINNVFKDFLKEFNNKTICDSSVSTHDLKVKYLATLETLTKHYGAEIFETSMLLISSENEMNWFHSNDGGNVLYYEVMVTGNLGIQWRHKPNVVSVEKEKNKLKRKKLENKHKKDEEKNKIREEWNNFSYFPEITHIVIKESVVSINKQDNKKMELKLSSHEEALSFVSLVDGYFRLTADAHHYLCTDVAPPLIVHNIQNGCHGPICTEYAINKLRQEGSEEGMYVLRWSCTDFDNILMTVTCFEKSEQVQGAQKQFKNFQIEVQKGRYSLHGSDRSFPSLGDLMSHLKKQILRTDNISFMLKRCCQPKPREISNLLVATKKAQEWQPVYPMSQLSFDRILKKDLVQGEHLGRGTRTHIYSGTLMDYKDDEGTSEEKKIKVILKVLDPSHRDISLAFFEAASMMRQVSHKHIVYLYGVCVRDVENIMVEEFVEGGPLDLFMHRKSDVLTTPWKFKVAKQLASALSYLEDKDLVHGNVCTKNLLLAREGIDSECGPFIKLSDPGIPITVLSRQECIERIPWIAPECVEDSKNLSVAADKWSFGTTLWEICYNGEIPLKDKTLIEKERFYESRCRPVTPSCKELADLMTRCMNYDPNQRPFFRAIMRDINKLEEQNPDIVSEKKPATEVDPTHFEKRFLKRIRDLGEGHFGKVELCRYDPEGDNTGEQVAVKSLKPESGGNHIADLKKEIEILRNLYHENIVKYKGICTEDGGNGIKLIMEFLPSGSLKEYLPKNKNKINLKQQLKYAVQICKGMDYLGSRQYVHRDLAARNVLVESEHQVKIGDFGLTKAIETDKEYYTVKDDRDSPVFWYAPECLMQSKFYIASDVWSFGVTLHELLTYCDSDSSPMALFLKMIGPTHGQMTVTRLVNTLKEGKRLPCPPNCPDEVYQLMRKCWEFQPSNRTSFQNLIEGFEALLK
T3 sequence (P23458 whole entry, the tested form may be a part): as above
Chain of MAPK3 (P27361 whole entry): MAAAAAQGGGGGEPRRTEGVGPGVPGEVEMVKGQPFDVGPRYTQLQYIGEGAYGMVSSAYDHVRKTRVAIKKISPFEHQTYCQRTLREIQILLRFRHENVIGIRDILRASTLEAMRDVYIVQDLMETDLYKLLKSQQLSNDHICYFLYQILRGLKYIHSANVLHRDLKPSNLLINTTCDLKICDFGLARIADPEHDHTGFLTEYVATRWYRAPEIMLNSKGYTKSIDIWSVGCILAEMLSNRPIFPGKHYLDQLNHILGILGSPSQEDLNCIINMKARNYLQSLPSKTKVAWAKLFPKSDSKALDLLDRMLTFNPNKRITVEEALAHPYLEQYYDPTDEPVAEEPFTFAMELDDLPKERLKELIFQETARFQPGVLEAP

Oc1ccc(C2=Cc3ccc(O)cc3OC2)cc1 [compound 1, idronoxil]
remaining binding at 10 µM (TBK1): 99%
remaining binding at 10 µM (DAPK3): 49%
remaining binding at 10 µM (LRRK2): 90%
remaining binding at 10 µM (NEK7): 99%
remaining binding at 10 µM (PRKCD): 96%
remaining binding at 10 µM (IRAK3): 77%
remaining binding at 10 µM (PRKD3): 85%
remaining binding at 10 µM [1]: 93%
remaining binding at 10 µM (MUSK): 89%
remaining binding at 10 µM [2]: 100%
remaining binding at 10 µM (TIE1): 84%
remaining binding at 10 µM (ACVR2A): 66%
remaining binding at 10 µM (SRPK2): 99%
remaining binding at 10 µM (CDKL1): 77%
remaining binding at 10 µM (PAK3): 100%
remaining binding at 10 µM (MAPK3): 94%
remaining binding at 10 µM (EPHA8): 89%
remaining binding at 10 µM [3]: 90%
remaining binding at 10 µM [4]: 71%
